42 compounds from patent publication US20070032529A1, “Pyrazole compounds and their use as antidiabetes agents” (Japan Tobacco Inc., priority 2005, published 2007) can be followed below.

Counter-ions that a name gives are not always drawn. Like-named read-outs stand apart in the source and are kept apart here. A value given as a limit tells only on which side of the number the result lay.

This assay concerns the target T1, recombinant human liver glycogen phosphorylase (Homo sapiens, UniProt P06737).
T1 construct: made in house; host or cells: Sf9 insect cells (crude homogenate, diluted, used as the enzyme solution)
T1 sequence (P06737 1-847): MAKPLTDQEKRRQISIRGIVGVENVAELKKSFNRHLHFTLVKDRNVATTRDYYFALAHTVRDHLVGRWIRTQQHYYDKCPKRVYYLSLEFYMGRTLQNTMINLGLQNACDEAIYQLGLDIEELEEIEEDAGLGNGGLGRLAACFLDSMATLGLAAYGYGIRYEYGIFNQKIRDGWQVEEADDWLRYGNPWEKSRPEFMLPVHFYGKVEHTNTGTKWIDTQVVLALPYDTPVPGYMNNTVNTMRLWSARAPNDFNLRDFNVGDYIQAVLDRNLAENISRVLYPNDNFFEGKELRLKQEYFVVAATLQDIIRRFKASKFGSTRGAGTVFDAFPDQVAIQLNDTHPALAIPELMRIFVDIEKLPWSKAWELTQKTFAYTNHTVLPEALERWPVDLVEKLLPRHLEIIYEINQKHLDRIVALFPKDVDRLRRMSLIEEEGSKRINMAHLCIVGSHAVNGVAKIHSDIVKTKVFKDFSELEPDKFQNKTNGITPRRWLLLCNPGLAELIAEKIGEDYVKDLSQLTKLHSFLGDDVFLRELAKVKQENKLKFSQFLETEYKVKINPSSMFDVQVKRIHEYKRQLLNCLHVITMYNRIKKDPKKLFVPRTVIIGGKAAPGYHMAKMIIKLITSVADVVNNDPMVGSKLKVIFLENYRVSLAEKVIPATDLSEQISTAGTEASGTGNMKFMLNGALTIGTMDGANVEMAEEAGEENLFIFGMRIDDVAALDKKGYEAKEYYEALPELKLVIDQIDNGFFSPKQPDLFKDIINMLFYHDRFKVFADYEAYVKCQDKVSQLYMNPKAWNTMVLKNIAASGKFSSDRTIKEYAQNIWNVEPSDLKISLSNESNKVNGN
Nature of the assay: Measuring liver glycogen phosphorylase activity (forward reaction system, NADPH absorbance at 340 nm). Type of assay: biochemical. On the procedure:
[Pharmacological Test] 1. Exemplary Test (1) Method for Measuring Liver Glycogen Phosphorylase Activity
The measurement of glycogen phosphorylase activity was carried out by a method using the forward reaction system.
The measurement of glycogen phosphorylase activity using the forward reaction system was carried out as follows. Glucose-1-phosphate prepared from glycogen by glycogen phosphorylase was converted into glucono-δ-lactone 6-phosphate through transphosphorylation and dehydrogenation using phosphoglucomutase and glucose-6-phosphate dehydrogenase (G6PDH). NADPH generated from NADP during the dehydrogenation by G6PDH was detected.
A homogenate of the Sf9 cells which expressed exogenously recombinant human liver glycogen phosphorylase was diluted with 100 mmol/LBES buffer solution (pH 6.8, containing 2 mmol/L EDTA) and the dilution was used as the enzyme solution of human liver glycogen phosphorylase. As the substrate, a phosphate buffer (containing 16 mmol/L KH2PO4, 24 mmol/L Na2HPO4) was used. A mixture of 8 U/mL phosphoglucomutase and 60 U/mL G6PDH was prepared in BES buffer solution. Buffer solution (containing 1.4 mmol/L NADP, 30 mmol/L MgCl2, 8 μmol/L glucose-1,6-diphosphate, 8 mg/mL glycogen, 40 mmol/LBES, 0.8 mmol/L EDTA) for reaction and a glucose solution (containing 75 mmol/L glucose, 100 mmol/LBES, 2 mmol/L EDTA) were prepared individually. The test compound was dissolved in 1% DMSO solution.
The enzymatic reaction was begun by adding 20 μL of the recombinant human liver glycogen phosphorylase solution and 20 μL of the mixture of phosphoglucomutase and G6PDH to the mixture of 20 μL of the glucose solution, 20 μL of the substrate, 100 μL of the buffer solution for reaction and 20 μL of the test compound solution. As control, 1% DMSO solution was added instead of the test compound. The mixture without the substrate was used as blank. The absorbance at 340 nm was measured immediately after the reaction started. The absorbance at 340 nm was measured again after reacting at room temperature for 75 minutes. The enzymatic activity is a value obtained by subtracting the blank variation in absorbance over 75 minutes from the variation in absorbance over 75 minutes.
The inhibition rate (%) of the test compound was calculated by the expression “(1-enzymatic activity of test compound/enzymatic activity of control)×100.”
A linear equation was determined from the two concentration points with the 50% inhibition rate therebetween, and the IC50 value was calculated from the concentration at the intersection of the line with the 50% inhibition rate.
“IC50” in the tables indicates the above-described enzyme inhibitory activity with respect to liver glycogen phosphorylase, and the activity to inhibit liver glycogen phosphorylase was represented as ++ when the IC50 value (nmol/L) was less than 100 nmol/L, as + when the IC50 value was between 100 nmol/L and 300 nmol/L. When IC50 is 300 nmol/L or more, an inhibition rate (%) at a certain concentration of the compound (I) of the present invention is shown in Tables. For example, when the inhibition rate is 20% at a concentration of 300 nmol, the rate is described as 20% (300).

Setting [1] is: compound concentration 100 nmol (in parentheses), read-out: inhibition rate (%) at a certain concentration.
Where [2] appears, read: enzyme inhibitory activity with respect to liver glycogen phosphorylase, class symbols.
Where [3] appears, read: compound concentration 300 nmol (in parentheses), read-out: inhibition rate (%) at a certain concentration.
Setting [4] is: human liver glycogen phosphorylase, class symbol.
Setting [5] is: figure in brackets (300), read-out: IC50 column: % value printed with (300).
Where [6] appears, read: figure in brackets (100), read-out: IC50: % value given with (100).

Broadly, the IC50 is the concentration that inhibits the measured activity by half.

On to `O=C(N[C@@H](CO)c1ccccc1)c1cc(NC(=O)c2cc(F)c(F)cc2Cl)[nH]n1` [Example 3-22], for which the inhibition at 0.64 µM (compound concentration 640 nmol (in parentheses), read-out: inhibition rate (%) at a certain concentration) was determined as 50%.
With `O=C(NCCc1ccccn1)c1cc(NC(=O)c2cc(F)c(F)cc2Cl)[nH]n1` [Example 1-139], under setting [1], the inhibition at 0.1 µM came to 22.9%.
In the case of `O=C(NCc1cc(F)ccc1F)c1cc(NC(=O)c2cc(F)c(F)cc2Cl)[nH]n1` [Example 1-20], under setting [2], the IC50 was less than 0.1 µM.
Consider `C[C@H](NC(=O)c1cc(NC(=O)c2cc(F)c(F)cc2Cl)[nH]n1)c1ccccc1` [Example 2-21], for which the inhibition at 0.1 µM under setting [1] is 5.7%.
Consider `O=C(NC1CCCCC1)c1cc(NC(=O)c2cc(F)c(F)cc2Cl)[nH]n1` [Example 1-79], for which the inhibition at 0.3 µM under setting [3] is 23.3%.
With `O=C(NCc1cccnc1)c1cc(NC(=O)c2ccc(Cl)cc2Cl)[nH]n1` [Example 7-3], the IC50 under setting [4] is less than 0.1 µM.
With `Cc1nc(C)c(CNC(=O)c2cc(NC(=O)c3cc(F)c(F)cc3Cl)[nH]n2)o1` [Example 1-2-2, 5-(2-chloro-4,5-difluoro-benzoylamino)-1H-pyrazole-3-carboxylic acid (2,4-dimethyl-oxazol-5-ylmethyl)-amide p-toluenesulfonate], the IC50 under setting [2] was less than 0.1 µM.
On to `O=C(Nc1cccc2ncccc12)c1cc(NC(=O)c2cc(F)c(F)cc2Cl)[nH]n1` [Example 5-36], for which the “inhibition rate (%) at a certain concentration” value (compound concentration 100 nmol (in parentheses)) is 17.8% (100).
In the case of `CCOc1cc(C(C)(C)C(=O)O)cnc1NC(=O)c1cc(NC(=O)c2cc(F)c(F)cc2Cl)[nH]n1` [Example 1-150], the inhibition at 0.1 µM under setting [1] was 13.8%.
Turning to `CCCCN(C(=O)c1cc(NC(=O)c2cc(F)c(F)cc2Cl)[nH]n1)C1CCCCC1` [Example 1-89], the IC50 under setting [2] is less than 0.1 µM.
On the same count and under the same terms, under `CCCCN(C(=O)c1cc(NC(=O)c2cc(F)c(F)cc2Cl)[nH]n1)C1CCN(C(C)=O)CC1` [Example 1-110] stands less than 0.1 µM; under `CN(C)CCN(C(=O)c1cc(NC(=O)c2cc(F)c(F)cc2Cl)[nH]n1)C1CCCCC1` [Example 3-44], 0.1 to 0.3 µM.
Same read-out and setting: under `O=C(Nc1cc(C(=O)N(CC(=O)N2CCCCC2)c2ccccc2)n[nH]1)c1cc(F)c(F)cc1Cl` [Example 4-11] stands less than 0.1 µM.
On the same count and under the same terms, the result for `CCN(CC)C(=O)c1ccc(CNC(=O)c2cc(NC(=O)c3cc(F)c(F)cc3Cl)[nH]n2)cc1` [Example 1-118] reads less than 0.1 µM.
Turning to `CN(C(=O)c1cc(NC(=O)c2cc(F)c(Cl)cc2Cl)[nH]n1)c1ccc(C(N)=O)cc1` [Example 6-2], the inhibition at 0.3 µM under setting [5] turned out to be 12.3%.
For `Cc1nc(-c2ccccc2)oc1CNC(=O)c1cc(NC(=O)c2cc(F)c(F)cc2Cl)[nH]n1` [Example 1-165], under setting [2], the IC50 was less than 0.1 µM.
On the same count and under the same terms, under `COc1cncc(OC)c1CNC(=O)c1cc(NC(=O)c2cc(F)c(F)cc2Cl)[nH]n1` [Example 3-51] stands less than 0.1 µM.
As to `O=C(Nc1cc(C(=O)N(CCO)c2ccccc2)n[nH]1)c1cc(F)c(F)cc1Cl` [Example 1-77], the inhibition at 1 µM (compound concentration 1000 nmol (in parentheses), read-out: inhibition rate (%) at a certain concentration) came out at 43.8%.
As for `NC(=O)c1ccc(CNC(=O)c2cc(NC(=O)c3cc(F)c(F)cc3Cl)[nH]n2)cc1` [Example 1-122], the IC50 under setting [2] is less than 0.1 µM.
For `O=C(NCCc1ccncc1)c1cc(NC(=O)c2cc(F)c(F)cc2Cl)[nH]n1` [Example 1-141], the inhibition at 0.1 µM under setting [1] was 31.4%.
Turning to `Cn1cccc1CNC(=O)c1cc(NC(=O)c2cc(F)c(F)cc2Cl)[nH]n1` [Example 1-58], under setting [2], the IC50 is less than 0.1 µM.
In the case of `O=C(NCc1cccnc1)c1cc(NC(=O)c2cc(F)c(Cl)nc2Cl)[nH]n1` [Example 7-5], the inhibition at 0.3 µM under setting [5] turned out to be 8.5%.
On to `O=C(NCc1c(F)cccc1Cl)c1cc(NC(=O)c2cc(F)c(F)cc2Cl)[nH]n1` [Example 1-36], for which the IC50 under setting [2] is less than 0.1 µM.
With `CS(=O)(=O)Nc1ccccc1CNC(=O)c1cc(NC(=O)c2cc(F)c(F)cc2Cl)[nH]n1` [Example 6-19], the IC50 under setting [4] was less than 0.1 µM.
In the case of `CCOC(=O)CCCN(C(=O)c1cc(NC(=O)c2cc(F)c(F)cc2Cl)[nH]n1)c1ccccc1` [Example 4-26], the IC50 under setting [2] was less than 0.1 µM.
The same measure, in the same setting: under `CCCCN(C(=O)c1cc(NC(=O)c2cc(F)c(F)cc2Cl)[nH]n1)C1CCSCC1` [Example 1-105] stands 0.1 to 0.3 µM.
With `CN(C(=O)c1cc(NC(=O)c2cc(F)c(F)cc2Cl)[nH]n1)c1ccc(-c2nnc[nH]2)cc1` [Example 6-8], the inhibition at 0.3 µM under setting [5] amounted to 11.7%.
As to `O=C(NCc1cccnc1)c1cc(NC(=O)c2sc(Cl)c(Cl)c2Cl)[nH]n1` [Example 7-14], the inhibition at 0.1 µM under setting [6] came out at 4.6%.
`O=C(NCc1ccc(-c2cccs2)s1)c1cc(NC(=O)c2cc(F)c(F)cc2Cl)[nH]n1` [Example 1-159]: under setting [2], the half-maximal inhibitory concentration (IC50) lay in the range of 0.1 to 0.3 µM.
The same measure, in the same setting: the result for `CCCN(C(=O)c1cc(NC(=O)c2cc(F)c(F)cc2Cl)[nH]n1)c1ccccc1` [Example 3-16] reads less than 0.1 µM; that for `CC(C)(C)c1ccc(CNC(=O)c2cc(NC(=O)c3cc(F)c(F)cc3Cl)[nH]n2)cc1` [Example 1-30], less than 0.1 µM.
With `CC(=O)Nc1ccccc1CNC(=O)c1cc(NC(=O)c2cc(F)c(F)cc2Cl)[nH]n1` [Example 6-20], under setting [4], the IC50 was less than 0.1 µM.
Turning to `COc1ccccc1N(C)C(=O)c1cc(NC(=O)c2cc(F)c(F)cc2Cl)[nH]n1` [Example 3-28], the half-maximal inhibitory concentration (IC50) under setting [2] was 0.1 to 0.3 µM.
As for `O=C(NC1Cc2ccccc2C1)c1cc(NC(=O)c2cc(F)c(F)cc2Cl)[nH]n1` [Example 6-42], the inhibition at 0.1 µM under setting [6] is 21.7%.
With `Cc1ncccc1C(=O)Nc1cc(C(=O)NCc2ccccc2)n[nH]1` [Example 4-42], under setting [3], the inhibition at 0.3 µM worked out at 8.5%.
On the same count and under the same terms, the result for `O=C(Nc1ccccc1N1CCOCC1)c1cc(NC(=O)c2cc(F)c(F)cc2Cl)[nH]n1` [Example 1-92] reads 11.7%.
As to `Cc1cc(Cl)ccc1C(=O)Nc1cc(C(=O)NCc2ccccc2)n[nH]1` [Example 4-15], the IC50 under setting [2] is 0.1 to 0.3 µM.
Turning to `O=C(NCc1ccc(N2CCSCC2)nc1)c1cc(NC(=O)c2cc(F)c(F)cc2Cl)[nH]n1` [Example 1-153], the half-maximal inhibitory concentration (IC50) under setting [2] was less than 0.1 µM.
`CCCN(C(=O)c1cc(NC(=O)c2cc(F)c(F)cc2Cl)[nH]n1)C1CCC(C(=O)OCC)CC1` (stereo not drawn) [Example 1-11]: the IC50 under setting [2] fell in the range of 0.1 to 0.3 µM.
Same read-out and setting: the result for `O=C(NCc1nnc[nH]1)c1cc(NC(=O)c2cc(F)c(F)cc2Cl)[nH]n1` [Example 2-2-1, 5-(2-chloro-4,5-difluoro-benzoylamino)-1H-pyrazole-3-carboxylic acid (4H-[1,2,4]triazol-3-ylmethyl)-amide dihydrochloride] reads less than 0.1 µM.
For the compound `NCc1ccnc(CNC(=O)c2cc(NC(=O)c3cc(F)c(F)cc3Cl)[nH]n2)c1` [Example 5-18], the half-maximal inhibitory concentration (IC50) under setting [2] is less than 0.1 µM.
For the compound `COc1ccc(C(=O)Nc2cc(C(=O)NCc3ccccc3)n[nH]2)c(C)c1` [Example 4-14], the inhibition at 0.3 µM under setting [3] stood at 10.6%.
